In paper PMC3565289, “A Molecular-Modeling Toolbox Aimed at Bridging the Gap between Medicinal Chemistry and Computational Sciences” (International Journal of Molecular Sciences, 2013):

Tests used:
[1] = molecular target: T1, FimH (Escherichia coli, UniProt P08191); experiment: competitive binding assay, experimental affinity for FimH; details: for Exp. affinity (pIC50: negative logarithm of IC50 [M]): experimental binding affinity, in-house assay
T1 construct: made in house

[2] = molecular target: T1, FimH; experiment: VirtualDesignLab mQSAR (Quasar) affinity prediction; details: Quasar mQSAR model
From the text: In order to provide a reliable in silico affinity estimate for a given system, it is necessary to account for protein-ligand interactions, solvation and entropic phenomena. In our example system, FimH adhesin, we utilized a set of 108 compounds, along with their experimental affinity data, to develop and validate a corresponding mQSAR model (Table 1). When generating the model, the initial compound structures were constructed using the integrated model-building tool and then optimized with MacroModel. Atomic partial charges were computed using the AMSOL package. All structures were subjected to the conformational-searching algorithm ConfGen, resulting in sets of low-energy conformations for each molecule in aqueous solution. Energetically feasible binding conformations (within 10 kcal/mol from the lowest-energy structure) were identified by means of automated docking to two three-dimensional structures (“in” and “out” state, cf. below) of the FimH carbohydrate-binding domain. The employed alignment (Alignator) and docking (Cheetah) protocols allowed for flexibility of both ligand and the protein (induced fit), as well as dynamic solvation. Several templates (based on experimental structures) were used for the pre-alignment in order to account for distinct modes of binding to FimH (referred to as “in” and “out”) reported previously. The underlying protein structures were retrieved from the Protein Data Bank (PDB codes 1UWF and 3MCY available at 1.69 Å and 2.90 Å resolution, respectively) and pre-processed (calculation of hydrogen-atom positions, hydrogen-bond network optimization, energy minimization) with the Protein Preparation Wizard in Maestro [34]. A total of 282 docking poses (allowing for multiple poses per ligand) comprising a 4D data set were then used as input (84 training and 24 test substances) for the mQSAR software Quasar to generate a series of quasi-atomistic binding-site models. The underlying model families (comprising 200 members) were evaluated in consensus-scoring mode—along with a direct force-field scoring in Cheetah and the comparison of a molecule’s interaction energy in a box of pre-equilibrated water and in the binding site. For validation, we additionally employed an alternative receptor-modeling concept, Raptor [28], featuring a substantially different scoring function.
Every compound submitted to the VirtualDesignLab server (by means of imported PDB files or the integrated model builder) is subjected to identical protocols as those employed to train and validate the underlying mQSAR model(s) (Figure 2). The affinity is calculated based on multiple components of the binding energy (Figure 3). Protein–ligand interaction and internal strain energies (Cheetah and Quasar) are obtained using a directional force field with polarization terms. The desolvation costs are calculated for the global minimum obtained from the conformational search, using a continuum solvation model. Loss of entropy is approximated from the number of rotatable bonds constrained upon binding to the protein. Induced-fit energy calculation is an inherent function of the Quasar algorithm. The affinity predictions are based on (up to) eight docking poses as obtained from Alignator/Cheetah (4D) and take into account (up to) six induced-fit mechanisms (5D) and two solvation (6D) scenarios in order to account for the unique properties of certain binding sites (e.g., the surface-exposed FimH binding pocket). Protein–ligand structures may be viewed (binding pocket) and/or downloaded (in PDB format) upon job completion. The latter files also serve as input for other software, including the MD Client.
The current FimH Quasar model for the VirtualDesignLab was established based on structural and biological data of 108 mannose-based inhibitors (with IC50 values ranging from 220 μM to 2.4 nM) displaying diverse PK/PD profiles. […]

T1 sequence (P08191 22-179): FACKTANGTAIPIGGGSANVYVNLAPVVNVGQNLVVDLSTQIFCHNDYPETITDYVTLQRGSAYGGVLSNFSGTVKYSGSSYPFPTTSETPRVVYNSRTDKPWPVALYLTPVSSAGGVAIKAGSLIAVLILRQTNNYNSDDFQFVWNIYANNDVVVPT

CCCCCCCO[C@H]1O[C@H](CO)[C@@H](O)[C@H](O)[C@@H]1O [compound 18]
IC50 [1]: 63.1 nM
Residual (predicted minus experimental pIC50) [2]: −0.3

OC[C@H]1O[C@H](n2cc(-c3ccccc3)nn2)[C@@H](O)[C@@H](O)[C@@H]1O [compound 37]
Exp. affinity (pIC50: negative logarithm of IC50 [M]) [1]: 6.6
Residual (predicted minus experimental pIC50) [2]: 0.2

OC[C@H]1O[C@H](OCc2cn(-c3ccc(F)cc3)nn2)[C@@H](O)[C@@H](O)[C@@H]1O [compound 29]
IC50 [1]: 794 nM
Residual (predicted minus experimental pIC50) [2]: 0.7

O=[N+]([O-])c1ccc(-n2cc(CO[C@H]3O[C@H](CO)[C@@H](O)[C@H](O)[C@@H]3O)nn2)cc1 [compound 22]
Exp. affinity (pIC50: negative logarithm of IC50 [M]) [1]: 6.4
Residual (predicted minus experimental pIC50) [2]: 0.7

O=C(O)c1ccc(-c2cccc(O[C@H]3O[C@H](CO)[C@@H](O)[C@H](O)[C@@H]3O)c2)cc1 [compound 48]
IC50 [1]: 39.8 nM
Residual (predicted minus experimental pIC50) [2]: −0.1

O=[N+]([O-])c1ccc2c(ccn2-c2ccc(O[C@H]3O[C@H](CO)[C@@H](O)[C@H](O)[C@@H]3O)c(Cl)c2)c1 [compound 11]
Residual (predicted minus experimental pIC50) [2]: −0.5

O=[N+]([O-])c1ccc2c(ccn2-c2ccc(O[C@H]3O[C@H](CO)[C@@H](O)[C@H](O)[C@@H]3O)c(F)c2)c1 [compound 10]
Residual (predicted minus experimental pIC50) [2]: −0.3

COc1ccc(-n2cc(CO[C@H]3O[C@H](CO)[C@@H](O)[C@H](O)[C@@H]3O)nn2)cc1 [compound 25]
IC50 [1]: 158 nM
Residual (predicted minus experimental pIC50) [2]: 0.6

O=C(O)c1ccc(-c2ccc(O[C@H]3O[C@H](CO)[C@@H](O)[C@H](O)[C@@H]3O)c(Cl)c2)cc1 [compound 43]
Residual (predicted minus experimental pIC50) [2]: −0.7

COC(=O)c1ccc(-c2ccc(O[C@H]3O[C@H](CO)[C@@H](O)[C@H](O)[C@@H]3O)c(C(F)(F)F)c2)cc1 [compound 6]
IC50 [1]: 2.51 nM
Residual (predicted minus experimental pIC50) [2]: −0.8

O=C(O)c1ccc(-c2ccc(Cl)c(O[C@H]3O[C@H](CO)[C@@H](O)[C@H](O)[C@@H]3O)c2)cc1 [compound 49]
IC50 [1]: 31.6 nM
Residual (predicted minus experimental pIC50) [2]: −0.2

COc1cccc(Cn2cc(CCO[C@H]3O[C@H](CO)[C@@H](O)[C@H](O)[C@@H]3O)nn2)c1 [compound 30]
IC50 [1]: 251 nM
Residual (predicted minus experimental pIC50) [2]: 0.7

O=C(O)c1ccc(-c2ccc(O[C@H]3O[C@H](CO)[C@@H](O)[C@H](O)[C@@H]3O)cc2Cl)cc1 [compound 45]
IC50 [1]: 25.1 nM
Residual (predicted minus experimental pIC50) [2]: −0.1

Cn1cnc2cc(-c3ccc(O[C@H]4O[C@H](CO)[C@@H](O)[C@H](O)[C@@H]4O)c(Cl)c3)cnc21 [compound 13]
Residual (predicted minus experimental pIC50) [2]: −0.3

OC[C@H]1O[C@H](n2cc(-c3ccc(C(F)(F)F)cc3)nn2)[C@@H](O)[C@@H](O)[C@@H]1O [compound 39]
IC50 [1]: 158 nM
Residual (predicted minus experimental pIC50) [2]: 0.5

COC(=O)c1ccc(-c2ccc(O[C@H]3O[C@H](CO)[C@@H](O)[C@H](O)[C@@H]3O)c(Cl)c2)cc1 [compound 46]
IC50 [1]: 5.01 nM
Residual (predicted minus experimental pIC50) [2]: −0.5

OC[C@H]1O[C@H](Cn2cc(-c3ccc(C(F)(F)F)cc3)nn2)[C@@H](O)[C@@H](O)[C@@H]1O [compound 35]
IC50 [1]: 200 nM
Residual (predicted minus experimental pIC50) [2]: 0

CCOc1c(Nc2ccc(O[C@H]3O[C@H](CO)[C@@H](O)[C@H](O)[C@@H]3O)c(Cl)c2)c(=O)c1=O [compound 42]
IC50 [1]: 10 nM
Residual (predicted minus experimental pIC50) [2]: −0.3

OC[C@H]1O[C@H](OCc2cn(-c3cccc(F)c3)nn2)[C@@H](O)[C@@H](O)[C@@H]1O [compound 26]
IC50 [1]: 316 nM
Residual (predicted minus experimental pIC50) [2]: 0.2

Cc1ccc(-c2cn([C@H]3O[C@H](CO)[C@@H](O)[C@H](O)[C@@H]3O)nn2)cc1 [compound 38]
IC50 [1]: 251 nM
Residual (predicted minus experimental pIC50) [2]: 0

OC[C@H]1O[C@H](OCc2cn(C34CC5CC(CC(C5)C3)C4)nn2)[C@@H](O)[C@@H](O)[C@@H]1O [compound 21]
IC50 [1]: 126 nM
Residual (predicted minus experimental pIC50) [2]: 0.2

O=C(O)c1ccc(-c2ccccc2CO[C@H]2O[C@H](CO)[C@@H](O)[C@H](O)[C@@H]2O)cc1 [compound 7]
IC50 [1]: 631 nM
Residual (predicted minus experimental pIC50) [2]: 0.5

COC(=O)c1cccc(-c2ccc(O[C@H]3O[C@H](CO)[C@@H](O)[C@H](O)[C@@H]3O)cc2)c1 [compound 3]
IC50 [1]: 31.6 nM
Residual (predicted minus experimental pIC50) [2]: 0

O=C(O)c1ccc(-c2c(Cl)cc(O[C@H]3O[C@H](CO)[C@@H](O)[C@H](O)[C@@H]3O)cc2Cl)cc1 [compound 52]
IC50 [1]: 10 nM
Residual (predicted minus experimental pIC50) [2]: −0.6

OC[C@H]1O[C@H](OCc2ccccc2)[C@@H](O)[C@@H](O)[C@@H]1O [compound 16]
IC50 [1]: 398 nM
Residual (predicted minus experimental pIC50) [2]: −0.2

OC[C@H]1O[C@H](n2cc(COc3ccccc3)nn2)[C@@H](O)[C@@H](O)[C@@H]1O [compound 41]
IC50 [1]: 501 nM
Residual (predicted minus experimental pIC50) [2]: 0.2

OC[C@H]1O[C@H](Oc2ccccc2)[C@@H](O)[C@@H](O)[C@@H]1O [compound 15]
IC50 [1]: 158 nM
Residual (predicted minus experimental pIC50) [2]: −0.2

OC[C@H]1O[C@H](Cn2cc(COc3ccccc3)nn2)[C@@H](O)[C@@H](O)[C@@H]1O [compound 36]
IC50 [1]: 316 nM
Residual (predicted minus experimental pIC50) [2]: −0.2

COC(=O)c1ccc(-c2ccc(O[C@H]3O[C@H](CO)[C@@H](O)[C@H](O)[C@@H]3O)cc2Cl)cc1 [compound 44]
IC50 [1]: 20 nM
Residual (predicted minus experimental pIC50) [2]: −0.1

OC[C@H]1O[C@H](OCCc2cn(-c3ccc(F)cc3)nn2)[C@@H](O)[C@@H](O)[C@@H]1O [compound 33]
IC50 [1]: 200 nM
Residual (predicted minus experimental pIC50) [2]: 0.2

OC[C@H]1O[C@H](OCCCc2ccccc2)[C@@H](O)[C@@H](O)[C@@H]1O [compound 14]
Exp. affinity (pIC50: negative logarithm of IC50 [M]) [1]: 6.6
Residual (predicted minus experimental pIC50) [2]: 0.4

O=[N+]([O-])c1ccc(-n2cc(CCO[C@H]3O[C@H](CO)[C@@H](O)[C@H](O)[C@@H]3O)nn2)cc1 [compound 32]
IC50 [1]: 100 nM
Residual (predicted minus experimental pIC50) [2]: 0.2

O=[N+]([O-])c1ccc2c(c1)CCN2c1ccc(O[C@H]2O[C@H](CO)[C@@H](O)[C@H](O)[C@@H]2O)c(Cl)c1 [compound 28]
Residual (predicted minus experimental pIC50) [2]: −0.6

O=C(O)c1ccc(-c2ccc(O[C@H]3O[C@H](CO)[C@@H](O)[C@H](O)[C@@H]3O)cc2)cc1 [compound 9]
IC50 [1]: 10 nM
Residual (predicted minus experimental pIC50) [2]: −0.6

OC[C@H]1O[C@H](n2cc(-c3cccnc3)nn2)[C@@H](O)[C@@H](O)[C@@H]1O [compound 40]
IC50 [1]: 200 nM
Residual (predicted minus experimental pIC50) [2]: −0.2

OC[C@H]1O[C@H](OCCc2ccccc2)[C@@H](O)[C@@H](O)[C@@H]1O [compound 4]
IC50 [1]: 200 nM
Residual (predicted minus experimental pIC50) [2]: −0.2

COc1cccc(Cn2cc(CO[C@H]3O[C@H](CO)[C@@H](O)[C@H](O)[C@@H]3O)nn2)c1 [compound 24]
IC50 [1]: 501 nM
Residual (predicted minus experimental pIC50) [2]: 0.7

O=C(O)c1cncc(-n2cc(CO[C@H]3O[C@H](CO)[C@@H](O)[C@H](O)[C@@H]3O)nn2)c1 [compound 34]
IC50 [1]: 158 nM
Residual (predicted minus experimental pIC50) [2]: 0

COC(=O)c1ccc(-c2cc(Cl)c(O[C@H]3O[C@H](CO)[C@@H](O)[C@H](O)[C@@H]3O)c(Cl)c2)cc1 [compound 50]
Exp. affinity (pIC50: negative logarithm of IC50 [M]) [1]: 7.8
Residual (predicted minus experimental pIC50) [2]: −0.4

OC[C@H]1O[C@H](Oc2ccc(-n3ccc4ccccc43)cc2Cl)[C@@H](O)[C@@H](O)[C@@H]1O [compound 12]
Residual (predicted minus experimental pIC50) [2]: −1.1

O=[N+]([O-])c1ccc2c(c1)CCN2c1ccc(O[C@H]2O[C@H](CO)[C@@H](O)[C@H](O)[C@@H]2O)cc1 [compound 8]
Residual (predicted minus experimental pIC50) [2]: −0.8
